According to patent publication US11866720B2, “Transgenic or non-transgenic plants with mutated protoporphyrinogen oxidase having increased tolerance to herbicides” (priority 2013, dated 2024):
Values joined by “and” are separate entries in the source; they are usually repeats but may differ in a detail not shown here. Equal entries are not always repeated.

Experiments:
[1] = tested on: transgenic soybean expressing mutated PPO; experiment: Soybean segregating T1 individuals, greenhouse spray test (injury 0-9); assay type: in vivo, Glycine max; settings: 1 week after treatment
[2] = tested on: transgenic Arabidopsis thaliana plants expressing wildtype or mutated PPO; experiment: Germination / growth inhibition assay of transgenic Arabidopsis T2 seeds in 48-well plates; settings: growth inhibition seven to ten days after seeding
[3] = transgenic Arabidopsis AMATU_PPO2_F420I
[4] = transgenic Arabidopsis AMATU_PPO2_F420L
[5] = transgenic Arabidopsis AMATU_PPO2_F420M
[6] = transgenic Arabidopsis AMATU_PPO2_R128A_F420I
[7] = transgenic Arabidopsis AMATU_PPO2_R128A_F420L
[8] = transgenic Arabidopsis AMATU_PPO2_R128L
[9] = transgenic Arabidopsis AMATU_PPO2_dG210
[10] = transgenic Arabidopsis AMATU_PPO2_dG210_R128L

With `CS(=O)(=O)NC(=O)c1cc(Oc2ccc(C(F)(F)F)cc2Cl)ccc1[N+](=O)[O-]` [Fomesafen, fomesafen] the “injury (0-9 point scale)” value ([1]; SDS10791 AmtuPPX2L R128A_F420I, Fomesafen 600 g ai/ha) was 6 and 3 (2×) and 1 (3×) and 4 and 2, the “injury (0-9 point scale)” value ([1]; SDS-10642 AmtuPPX2L R128A_F420L, Fomesafen 600 g ai/ha) was 0 (4×) and 1 (4×) and the “injury (0-9 point scale)” value ([1]; SDS-10648 AmtuPPX2L R128A_F420I, Fomesafen 600 g ai/ha) was 5 and 3 (6×) and 4. For the same compound, the “injury (0-9 point scale)” value ([1]; SDS-10652 AmtuPPX2L L397D_F420V, Fomesafen 600 g ai/ha) was 1 (2×) and 2 (2×) and 0 (3×) and 4, the “injury (0-9 point scale)” value ([1]; SDS-10787 AmtuPPX2L R128A_F420L, Fomesafen 600 g ai/ha) was 1 (2×) and 0 (2×) and 2 (2×) and 5 and 3 and the “injury (0-9 point scale)” value ([1]; SDS-10985 AmtuPPX2L R128A_F420M, Fomesafen 600 g ai/ha) was 3 (3×) and 0 (2×) and 1 (2×) and 5. The “injury (0-9 point scale)” value ([1]; SDS-10990 AmtuPPX2L R128A_F420M, Fomesafen 600 g ai/ha) was 1 (2×) and 3 and 0 (2×) and 4 and 5 (2×), the “injury (0-9 point scale)” value ([1]; SDS-11034 AmtuPPX2L R128A_F420V, Fomesafen 600 g ai/ha) was 2 (2×) and 0 (3×) and 1 (3×) and the “injury (0-9 point scale)” value ([1]; wild type, Fomesafen 600 g ai/ha) was 5 (4×) and 4 (4×). The “Relative tolerance rate as compared to a non-transgenic Arabidopsis plant (non-transgenic = 1.0)” value (“Relative tolerance rate … (non-transgenic = 1.0)” for short) [2, 3] was 18, the “Relative tolerance rate … (non-transgenic = 1.0)” value [2, 4] was 23 and the “Relative tolerance rate … (non-transgenic = 1.0)” value [2, 5] was 29. For the same compound, the “Relative tolerance rate … (non-transgenic = 1.0)” value [2, 6] was 29, the “Relative tolerance rate … (non-transgenic = 1.0)” value [2, 7] was 29 and the “Relative tolerance rate … (non-transgenic = 1.0)” value ([2]; transgenic Arabidopsis AMATU_PPO2_R128A_F420M) was 29. For the same compound, the “Relative tolerance rate … (non-transgenic = 1.0)” value [2, 8] was 27, the “Relative tolerance rate … (non-transgenic = 1.0)” value [2, 9] was 29 and the “Relative tolerance rate … (non-transgenic = 1.0)” value [2, 10] was 29. For the same compound, the “Relative tolerance rate … (non-transgenic = 1.0)” value ([2]; transgenic Arabidopsis AMATU_PPO2_wt) was 19.
`Cc1nn(-c2cc(NS(C)(=O)=O)c(Cl)cc2Cl)c(=O)n1C(F)F` [Sulfentrazon, sulfentrazone] was tested, and the “injury (0-9 point scale)” value ([1]; SDS10791 AmtuPPX2L R128A_F420I, Sulfentrazone 350 g ai/ha) was 9 (5×) and 2 (2×) and 1, the “injury (0-9 point scale)” value ([1]; SDS10791 AmtuPPX2L R128A_F420I, Sulfentrazone 700 g ai/ha) was 3 (3×) and 4 and 9 (3×) and 2 and the “injury (0-9 point scale)” value ([1]; SDS-10642 AmtuPPX2L R128A_F420L, Sulfentrazone 350 g ai/ha) was 1 (2×) and 0 (3×) and 3 (2×) and 2. For the same compound, the “injury (0-9 point scale)” value ([1]; SDS-10648 AmtuPPX2L R128A_F420I, Sulfentrazone 350 g ai/ha) was 3 (3×) and 4 (2×) and 5 (2×) and 8, the “injury (0-9 point scale)” value ([1]; SDS-10648 AmtuPPX2L R128A_F420I, Sulfentrazone 700 g ai/ha) was 3 (2×) and 2 and 9 and 4 (4×) and the “injury (0-9 point scale)” value ([1]; SDS-10652 AmtuPPX2L L397D_F420V, Sulfentrazone 350 g ai/ha) was 9 and 6 and 3 (2×) and 5 (2×). For the same compound, the “injury (0-9 point scale)” value ([1]; SDS-10787 AmtuPPX2L R128A_F420L, Sulfentrazone 350 g ai/ha) was 5 (4×) and 4 and 6 and 9 (2×), the “injury (0-9 point scale)” value ([1]; SDS-10985 AmtuPPX2L R128A_F420M, Sulfentrazone 350 g ai/ha) was 3 (4×) and 8 and 4 and 1 and the “injury (0-9 point scale)” value ([1]; SDS-10985 AmtuPPX2L R128A_F420M, Sulfentrazone 700 g ai/ha) was 1 and 9 (2×) and 2 (2×) and 3 (2×) and 4. The “injury (0-9 point scale)” value ([1]; SDS-10990 AmtuPPX2L R128A_F420M, Sulfentrazone 350 g ai/ha) was 3 (4×) and 4 (2×) and 9 (2×), the “injury (0-9 point scale)” value ([1]; SDS-10990 AmtuPPX2L R128A_F420M, Sulfentrazone 700 g ai/ha) was 3 and 4 (4×) and 9 (3×) and the “injury (0-9 point scale)” value ([1]; SDS-11034 AmtuPPX2L R128A_F420V, Sulfentrazone 350 g ai/ha) was 1 (3×) and 3 (2×) and 9 and 0. For the same compound, the “injury (0-9 point scale)” value ([1]; wild type, Sulfentrazone 350 g ai/ha) was 9 (5×) and 7 (2×) and 8, the “Relative tolerance rate … (non-transgenic = 1.0)” value [2, 3] was 193 and the “Relative tolerance rate … (non-transgenic = 1.0)” value [2, 4] was 111. The “Relative tolerance rate … (non-transgenic = 1.0)” value [2, 5] was 161, the “Relative tolerance rate … (non-transgenic = 1.0)” value [2, 6] was 621 and the “Relative tolerance rate … (non-transgenic = 1.0)” value [2, 7] was 717. For the same compound, the “Relative tolerance rate … (non-transgenic = 1.0)” value [2, 8] was 186, the “Relative tolerance rate … (non-transgenic = 1.0)” value [2, 9] was 203 and the “Relative tolerance rate … (non-transgenic = 1.0)” value [2, 10] was 244.
